Measurements taken from patent US10420764B2, “Pharmaceutical formulation of N-[5-[2-(3,5-dimethoxyphenyl)ethyl]-2H-pyrazol-3-YL]-4-[(3R,5S)-3 ,5-dimethylpiperazin-1-YL] benzamide” (AstraZeneca AB, priority 2012, dated 2019).
Where two headings read alike, the source gives them in different places.

Experiment: Solubility of Formula (I) in simulated gastric and fasted simulated intestinal fluid
Type: physicochemical
Description: Furthermore, we have observed that the compound of Formula (I) may form a viscous material at low pH, which has the effect of reducing the rate at which the drag dissolves. In order to achieve an acceptable rate and extent of dissolution across the physiological pH range, the earlier clinical formulation was manufactured using conditions designed to give a fine granule which, when compressed into tablet form would disperse rapidly upon administration. While this approach did result in an improvement in dissolution performance, ‘filming’ problems were experienced during manufacture. In addition, it was observed that the use of conventional lubricants such as magnesium stearate and sodium stearyl fumarate led to chemical degradation including impurity formation and/or complexation.

A solubility (fasted simulated intestinal fluid, pH 6.5, fassif, read-out: solubility in fasted simulated intestinal fluid) of roughly 250 µg/mL and a solubility (simulated gastric fluid, pH 1.2, simulated gastric fluid, read-out: solubility in simulated gastric fluid) of roughly 5000 µg/mL were found for COc1cc(CCc2cc(NC(=O)c3ccc(N4C[C@@H](C)N[C@@H](C)C4)cc3)n[nH]2)cc(OC)c1 [Formula (I), N-[5-[2-(3,5-dimethoxyphenyl)ethyl]-2H-pyrazol-3-yl]-4-[(3R,5S)-3,5-dimethylpiperazin-1-yl]benzamide] in this work.
